Measured values reported in patent US20090123940A1, “MOLECULES INVOLVED IN SYNAPTOGENESIS AND USES THEREFOR” (THE JOHNS HOPKINS UNIVERSITY, priority 2007, published 2009).

Key:
[1] = system: Narp association with AMPA receptor subunits; test: Co-immunoprecipitation of Narp with AMPA receptor subunits in HEK-293 cells; assay type: cell-based; conditions: 1 mM tunicamycin
Description: Co-immunoprecipitation experiments were used to examine whether Narp is physically associated with AMPA receptors in HEK-293 cells.

[2] = system: NPR-myc and GluR2-HA in COS-7 cells; test: Live staining of NPR clusters in transfected COS-7 cells after PMA; assay type: cell-based
Description: Immunocytochemical staining. Immunocytochemical staining of heterologous cells was performed as described (Xu et al., supra). For PMA-stimulation experiments, PMA (Sigma Cat #: P8139) at (150 nM) was added 90 minutes prior to live staining. Images were viewed and captured using Nikon E800 epifluorescence microscope fitted with a Princeton Instruments CCD camera. For live staining, neurons cultured on coverslips were incubated at 10° C. with the appropriate primary antibodies at the indicated dilutions in conditioned culture medium for 20 min. They were then washed with PBS and fixed with 4% paraformaldehyde/4% sucrose in PBS for 20 min at room temperature. Cells were permeablized with 0.2% Triton X-100 in PBS for 5 min and then blocked in 10% normal goat serum in PBS for 1 hr at room temperature. […] For quantification of the punctate structures (e.g. GluR1), images were thresholded by grey value to differentiate single puncta. Segments of dendrites were selected and number of puncta was calculated per […] of length dendrite. Figures show ratios of calculated mean densities (number of puncta per unit length) from treated/control. Error bars were calculated using SEM and Gaussian error propagation. n=number of measured dendrites. Significance was determined by paired Student's T-test. […]

[3] = system: NPR cleavage at Site A (TACE); test: NPR cleavage assay in transfected HEK293T cells; assay type: cell-based, rat; conditions: PMA 150 nM, cells transfected with NPR
Description: Cleavage Assay HEK293T cells were plated in OptiMEM (Invitrogen, Carlsbad, Calif.) containing 5% FBS onto 6-well dishes at a density of 4×10^5 cells/mL (2 mL/well) 1 day before transfection. Cells were transfected with NPR in pRK5 using LipofectAMINE 2000 (Invitrogen, Carlsbad Calif.). After 24 hr the medium was replaced with serum-free OptiMEM. […] Samples from each well were obtained at specific time points, immediately placed on ice, centrifuged at 15,000 g to remove cell debris, and then treated with 2% β-mercaptoethanol containing loading buffer. At the end of the time course, the cells were lysed with RIPA buffer, centrifuged to remove cell debris, and treated with 2% β-mercaptoethanol in loading buffer. Samples (20 μL of medium or lysate diluted to 1/5) were run on SDS-PAGE gels and analyzed by Western blotting.

Molecule	association between Narp and AMPA receptor subunits [1]	NPR distribution on COS-7 cells expressing NPR-myc ([2]; PMA 150 nM, 90 min)	clustering of NPR and GluR2 in COS-7 cells co-transfected with NPR-myc and GluR2-HA ([2]; PMA treated)	accumulation of LFC-NPR in the medium [3]
tunicamycin	no effect			
CCCCCCCCCCCCCC(=O)O[C@@H]1[C@@H](C)[C@@]2(O)[C@@H](C=C(CO)C[C@]3(O)C(=O)C(C)=C[C@@H]23)[C@@H]2C(C)(C)[C@]12OC(C)=O [PMA, phorbol myristate acetate]		large clusters of NPR were detected	exhibited co-clusters of NPR and GluR2	increased the accumulation of LFC-NPR in the medium
